According to US20150147436A1, “PRODUCTION OF CHEESE WITH S. THERMOPHILUS” (DuPont Nutrition BioSciences ApS, priority 2011, published 2015):

Key:
ur(−) S. thermophilus = experiment: Acidification of milk by S. thermophilus with or without sodium formate (Example 2); assay type: cell-based; settings: 10 ppm sodium formate, 2% milk, 40° C., no Lactococci, 350 minutes
Method: Samples of 2% milk taken from the same source were treated with ur(+) S. thermophilus without formate, ur(−) S. thermophilus without formate, and ur(−) S. thermophilus with 10 ppm sodium formate. Lactoccocci bacteria were not used. The milk was maintained at 40° C., and pH measurements were taken for 350 minutes.
FIG. 2 is a graph showing exemplary results from this experiment.

urease enzyme = experiment: Floating curd experiment in test tubes (Example 3); settings: Lactococci + ur(+) S. thermophilus + urease inhibitor, fermented at 35° C. to pH 4.65, heated at about 66° C. (test tube 3)
Method: Four experiments were conducted in which milk was treated with various bacteria. In experiment 1, only Lactococci bacteria were added. In experiment 2, a blend of Lactococci bacteria and ur(+) S. thermophilus bacteria were added. In experiment 3, a blend of Lactococci bacteria, ur(+) S. thermophilus bacteria, and the urease inhibitor flurofamide were added. In experiment 4, only ur(+) S. thermophilus bacteria were added.
In each experiment, the milk was fermented with the bacteria at 35° C. until the cheese reached a pH of 4.65. A sample of the cheese was placed into a test tube, which was heated at about 66° C. for about 10 minutes. After 10 minutes of heating, a small pipette or thin wire was used to agitate the sample. The samples were held at about 66° C. for another ten minutes, at which time the photograph of the test tubes depicted in FIG. 3, was taken.
Test tube 4 is a positive control that contains ur(+) S. thermophilus, which has urease enzymes that can hydrolyze urea in milk.

Structure (SMILES) | pH decrease effected by the ur(−) S. thermophilus (ur(−) S. thermophilus) | floating curd (urease enzyme)
O=C[O-].[Na+] [sodium formate] | significantly accelerated | 
NP(N)(=O)NC(=O)c1ccc(F)cc1 [flurofamide] |  | no floating curd
